Patent US12077503B2, “Substituted cyclic amides and their use as herbicides” (FMC CORPORATION, priority 2015, dated 2024)

Experiments:
Assay type in all cases: in vivo
[1] = system: ryegrass, Italian (Italian ryegrass, Lolium multiflorum); experiment: Test A postemergence; conditions: Lolium multiflorum, post-emergence, 240 h; for pest or weed control at 125 g/ha: 125 g ai/ha, postemergence, visual injury on 0 to 100 scale (0 no effect, 100 complete control), approx. 10 d, read-out: Ryegrass, Italian plant response rating; for pest or weed control at 31 g/ha: Postemergence, 31 g ai/ha, visual injury after approx. 10 d, 0 to 100 scale, 0 no effect, 100 complete control, read-out: Plant response rating, Ryegrass, Italian
Outline: (§1)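 Seeded soil received test chemicals as a preemergence directed spray, and seedlings at one to two leaves, 2–10 cm tall, received them postemergence, in a non-phytotoxic, surfactant-containing solvent mixture. Pots were held in a greenhouse for approximately 10 d, then rated for injury from 0, no effect, to 100, complete control.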

[2] = system: wheat (Triticum aestivum); experiment: Test A postemergence; conditions: Triticum aestivum, post-emergence, 240 h; for plant injury at 125 g/ha: 125 g ai/ha, postemergence, visual injury on 0 to 100 scale (0 no effect, 100 complete control), approx. 10 d, read-out: Wheat plant response rating; for plant injury at 31 g/ha: Postemergence, 31 g ai/ha, visual injury after approx. 10 d, 0 to 100 scale, 0 no effect, 100 complete control, read-out: Plant response rating, Wheat
Outline: as §1

[3] = system: barnyardgrass (Echinochloa crus-galli); experiment: Test A postemergence; conditions: Echinochloa crus-galli, post-emergence, 240 h; for pest or weed control at 125 g/ha: 125 g ai/ha, postemergence, visual injury on 0 to 100 scale (0 no effect, 100 complete control), approx. 10 d, read-out: Barnyardgrass plant response rating; for pest or weed control at 31 g/ha: Postemergence, 31 g ai/ha, visual injury after approx. 10 d, 0 to 100 scale, 0 no effect, 100 complete control, read-out: Plant response rating, Barnyardgrass
Outline: as §1

[4] = system: ragweed (common ragweed, Ambrosia elatior); experiment: Test A postemergence; conditions: Ambrosia artemisiifolia, post-emergence, 240 h; for pest or weed control at 125 g/ha: 125 g ai/ha, postemergence, visual injury on 0 to 100 scale (0 no effect, 100 complete control), approx. 10 d, read-out: Ragweed plant response rating; for pest or weed control at 31 g/ha: Postemergence, 31 g ai/ha, visual injury after approx. 10 d, 0 to 100 scale, 0 no effect, 100 complete control, read-out: Plant response rating, Ragweed
Outline: as §1

corn (Zea mays) = experiment: Test A postemergence; conditions: Zea mays, post-emergence, 240 h; for plant injury at 125 g/ha: 125 g ai/ha, postemergence, visual injury on 0 to 100 scale (0 no effect, 100 complete control), approx. 10 d, read-out: Corn plant response rating; for Corn plant response rating (crop injury, 0 = no effect, 100 = complete kill) at 31 g/ha: Postemergence, 31 g ai/ha, visual injury after approx. 10 d, 0 to 100 scale, 100 complete control
Outline: as §1

[5] = system: Galium (catchweed bedstraw, Galium aparine); experiment: Test A postemergence; conditions: Galium, post-emergence, 240 h; for pest or weed control at 125 g/ha: 125 g ai/ha, postemergence, visual injury on 0 to 100 scale (0 no effect, 100 complete control), approx. 10 d, read-out: Galium plant response rating; for pest or weed control at 31 g/ha: Postemergence, 31 g ai/ha, visual injury after approx. 10 d, 0 to 100 scale, 0 no effect, 100 complete control, read-out: Plant response rating, Galium
Outline: as §1

[6] = system: pigweed (Amaranthus retroflexus); experiment: Test A postemergence; conditions: Amaranthus retroflexus, post-emergence, 240 h; for pest or weed control at 125 g/ha: 125 g ai/ha, postemergence, visual injury on 0 to 100 scale (0 no effect, 100 complete control), approx. 10 d, read-out: Pigweed plant response rating; for pest or weed control at 31 g/ha: Postemergence, 31 g ai/ha, visual injury after approx. 10 d, 0 to 100 scale, 0 no effect, 100 complete control, read-out: Plant response rating, Pigweed
Outline: as §1

Kochia (Kochia scoparia) [7] = experiment: Test A postemergence; conditions: Bassia scoparia, post-emergence, 240 h; for pest or weed control at 125 g/ha: 125 g ai/ha, postemergence, visual injury on 0 to 100 scale (0 no effect, 100 complete control), approx. 10 d, read-out: Kochia plant response rating; for pest or weed control at 31 g/ha: Postemergence, 31 g ai/ha, visual injury after approx. 10 d, 0 to 100 scale, 0 no effect, 100 complete control, read-out: Plant response rating, Kochia
Outline: as §1

[8] = system: giant foxtail (Setaria faberii); experiment: Test A postemergence; conditions: Setaria faberi, post-emergence, 240 h; for pest or weed control at 125 g/ha: 125 g ai/ha, postemergence, visual injury on 0 to 100 scale (0 no effect, 100 complete control), approx. 10 d, read-out: Foxtail, Giant plant response rating; for pest or weed control at 31 g/ha: Postemergence, 31 g ai/ha, visual injury after approx. 10 d, 0 to 100 scale, 0 no effect, 100 complete control, read-out: Plant response rating, Foxtail, Giant
Outline: as §1

[9] = system: blackgrass (Alopecurus myosuroides); experiment: Test A postemergence; conditions: Alopecurus myosuroides, post-emergence, 240 h; for pest or weed control at 125 g/ha: 125 g ai/ha, postemergence, visual injury on 0 to 100 scale (0 no effect, 100 complete control), approx. 10 d, read-out: Blackgrass plant response rating; for pest or weed control at 31 g/ha: Postemergence, 31 g ai/ha, visual injury after approx. 10 d, 0 to 100 scale, 0 no effect, 100 complete control, read-out: Plant response rating, Blackgrass
Outline: as §1

[10] = system: ryegrass, Italian (Italian ryegrass, Lolium multiflorum); experiment: Test A preemergence; conditions: Lolium multiflorum, pre-emergence, 240 h, Preemergence; for pest or weed control at 31 g/ha: 31 g ai/ha, 0 to 100 scale where 0 is no effect and 100 is complete control, read-out: Ryegrass, Italian plant response rating; for pest or weed control at 125 g/ha: 125 g ai/ha, visual injury rating after approximately 10 d, read-out: Ryegrass, Italian plant response rating (0 to 100 scale, 0 is no effect, 100 is complete control)
Outline: as §1

[11] = system: barnyardgrass (Echinochloa crus-galli); experiment: Test A preemergence; conditions: Echinochloa crus-galli, pre-emergence, 240 h, Preemergence; for pest or weed control at 125 g/ha: 125 g ai/ha, visual injury rating after approximately 10 d, read-out: Barnyardgrass plant response rating (0 to 100 scale, 0 is no effect, 100 is complete control); for pest or weed control at 31 g/ha: 31 g ai/ha, 0 to 100 scale (0 no effect, 100 complete control), read-out: Plant response rating, Barnyardgrass
Outline: as §1

[12] = system: ragweed (common ragweed, Ambrosia elatior); experiment: Test A preemergence; conditions: Ambrosia artemisiifolia, pre-emergence, 240 h, Preemergence; for pest or weed control at 31 g/ha: 31 g ai/ha, 0 to 100 scale where 0 is no effect and 100 is complete control, read-out: Ragweed plant response rating; for pest or weed control at 125 g/ha: 125 g ai/ha, visual injury rating after approximately 10 d, read-out: Ragweed plant response rating (0 to 100 scale, 0 is no effect, 100 is complete control)
Outline: as §1

[13] = system: pigweed (Amaranthus retroflexus); experiment: Test A preemergence; conditions: Amaranthus retroflexus, pre-emergence, 240 h, Preemergence; for pest or weed control at 31 g/ha: 31 g ai/ha, 0 to 100 scale where 0 is no effect and 100 is complete control, read-out: Pigweed plant response rating; for pest or weed control at 125 g/ha: 125 g ai/ha, visual injury rating after approximately 10 d, read-out: Pigweed plant response rating (0 to 100 scale, 0 is no effect, 100 is complete control)
Kochia (Kochia scoparia) [14] = experiment: Test A preemergence; conditions: Bassia scoparia, pre-emergence, 240 h, Preemergence; for pest or weed control at 31 g/ha: 31 g ai/ha, 0 to 100 scale where 0 is no effect and 100 is complete control, read-out: Kochia plant response rating; for pest or weed control at 125 g/ha: 125 g ai/ha, visual injury rating after approximately 10 d, read-out: Kochia plant response rating (0 to 100 scale, 0 is no effect, 100 is complete control)
Outline: as §1

[15] = system: giant foxtail (Setaria faberii); experiment: Test A preemergence; conditions: Setaria faberi, pre-emergence, 240 h, Preemergence; for pest or weed control at 125 g/ha: 125 g ai/ha, visual injury rating after approximately 10 d, read-out: Foxtail, Giant plant response rating (0 to 100 scale, 0 is no effect, 100 is complete control); for pest or weed control at 31 g/ha: 31 g ai/ha, 0 to 100 scale (0 no effect, 100 complete control), read-out: Plant response rating, Foxtail, Giant
Outline: as §1

[16] = system: barnyardgrass (Echinochloa crus-galli); experiment: Test B flooded paddy test; conditions: Echinochloa crus-galli, 250 g ai/ha, Flood; 0 to 100 scale where 0 is no effect and 100 is complete control; read-out: Barnyardgrass plant response rating
Outline: (§2)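 2-leaf plants; pots flooded 3 cm over soil; cpd added to paddy water; depth held; greenhouse 13–15 d; visual rating vs controls, 0 = no effect, 100 = complete control.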

[17] = system: sedge, umbrella (small-flower umbrella sedge, Cyperus difformis); experiment: Test B flooded paddy test; conditions: Cyperus difformis, 250 g ai/ha, Flood; 0 to 100 scale where 0 is no effect and 100 is complete control; read-out: Sedge, Umbrella plant response rating
Outline: as §2

rice (Oryra sativa) = experiment: Test B flooded paddy test; conditions: Oryza sativa, 250 g ai/ha, Flood; 0 to 100 scale where 0 is no effect and 100 is complete control; read-out: Rice plant response rating
Outline: as §2

[18] = system: ducksalad (Heteranthera limosa); experiment: Test B flooded paddy test; conditions: Heteranthera limosa, 250 g ai/ha, Flood; 0 to 100 scale where 0 is no effect and 100 is complete control; read-out: Ducksalad plant response rating
Outline: as §2

| Structure (SMILES) | pest or weed control at 125 g/ha [1] | pest or weed control at 31 g/ha [1] | plant injury at 125 g/ha [2] | plant injury at 31 g/ha [2] | pest or weed control at 125 g/ha [3] | pest or weed control at 31 g/ha [3] | pest or weed control at 125 g/ha [4] | pest or weed control at 31 g/ha [4] | plant injury at 125 g/ha (corn (Zea mays)) | Corn plant response rating (crop injury, 0 = no effect, 100 = complete kill) at 31 g/ha (corn (Zea mays)) | pest or weed control at 125 g/ha [5] | pest or weed control at 31 g/ha [5] | pest or weed control at 125 g/ha [6] | pest or weed control at 31 g/ha [6] | pest or weed control at 125 g/ha (Kochia (Kochia scoparia) [7]) | pest or weed control at 31 g/ha (Kochia (Kochia scoparia) [7]) | pest or weed control at 125 g/ha [8] | pest or weed control at 31 g/ha [8] | pest or weed control at 125 g/ha [9] | pest or weed control at 31 g/ha [9] | also measured |
| --- | --- | --- | --- | --- | --- | --- | --- | --- | --- | --- | --- | --- | --- | --- | --- | --- | --- | --- | --- | --- | --- |
| CSc1ccccc1NC(=O)[C@H]1C(=O)NC[C@@H]1c1ccc(C(F)(F)F)cn1 [Compound 1050] | 0% | 0% | 0% | 0% | 0% | 0% | 0% | 0% | 0% | 0% | 0% | 0% | 0% | 0% | 0% | 0% | 0% | 0% | 0% | 0% | pest or weed control at 31 g/ha [10]: 0%; pest or weed control at 125 g/ha [10]: 0%; pest or weed control at 125 g/ha [11]: 0%; pest or weed control at 31 g/ha [11]: 0%; pest or weed control at 31 g/ha [12]: 0%; pest or weed control at 125 g/ha [12]: 0%; pest or weed control at 31 g/ha [13]: 0%; pest or weed control at 125 g/ha [13]: 0%; pest or weed control at 31 g/ha (Kochia (Kochia scoparia) [14]): 0%; pest or weed control at 125 g/ha (Kochia (Kochia scoparia) [14]): 0%; pest or weed control at 125 g/ha [15]: 0%; pest or weed control at 31 g/ha [15]: 0%; pest or weed control at 250 g/ha [16]: 0%; pest or weed control at 250 g/ha [17]: 0%; pest or weed control at 250 g/ha (rice (Oryra sativa)): 0%; pest or weed control at 250 g/ha [18]: 85% |
| CN1C[C@H](c2ccc(C(F)(F)F)cn2)[C@@H](C(=O)Nc2cccc(F)c2F)C1=O [Compound 1052] | 20% | 0% | 0% | 0% | 80% | 30% | 30% | 0% | 0% | 0% | 70% | 40% | 30% | 0% | 40% | 0% | 70% | 30% | 20% | 0% | pest or weed control at 31 g/ha [10]: 0%; pest or weed control at 125 g/ha [10]: 30%; pest or weed control at 125 g/ha [11]: 90%; pest or weed control at 31 g/ha [11]: 30%; pest or weed control at 31 g/ha [12]: 0%; pest or weed control at 125 g/ha [12]: 20%; pest or weed control at 31 g/ha [13]: 40%; pest or weed control at 125 g/ha [13]: 80%; pest or weed control at 31 g/ha (Kochia (Kochia scoparia) [14]): 20%; pest or weed control at 125 g/ha (Kochia (Kochia scoparia) [14]): 70%; pest or weed control at 125 g/ha [15]: 90%; pest or weed control at 31 g/ha [15]: 80%; pest or weed control at 250 g/ha [16]: 85%; pest or weed control at 250 g/ha [17]: 0%; pest or weed control at 250 g/ha (rice (Oryra sativa)): 0%; pest or weed control at 250 g/ha [18]: 100% |
